# In US20190375708A1 (VenatoRx Pharmaceuticals, Inc., priority 2018, published 2019):
# Columns and labels:
# [1] = In vitro cytotoxicity assay (MTT cell viability) in HepG2 cells; assay type: cell-based, human; conditions: human
# Method in brief: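 HepG2 seeded overnight, then 7-day compound exposure (30 μM–1.0 nM, half-log steps), 37 °C. MTT 3-4 h, DMSO solubilization, A492. % of vehicle → CC50, 4-PL fit.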
# [2] = tested on: HBV replication in HepAD38 cells; experiment: Anti-HBV replication assay in HepAD38 cells (QPCR of extracellular HBV DNA); assay type: cell-based, HBV (genotype D, serotype ayw); conditions: Hepatitis B virus, 168 h, 7 days incubation, extracellular HBV DNA by QPCR, read-out: Anti-HBV EC50
# Method in brief: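 Tet-off HepAD38, 7-day compound exposure ([…], 1 log10 steps, DMSO vehicle), 37 °C. Extracellular HBV DNA by QPCR, copies/mL via standard curve, % inhibition vs vehicle, EC50 by 4-parameter regression. Entecavir as positive control.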
SMILES,CC50 at 7 days [1],EC50 [2]
"Cc1cc(NC(=O)c2c(C)c(C(=O)C(=O)NC3(C(F)(F)F)CC(O)C3)n(C)c2C)ccc1F (stereo not drawn) [Example 288, N-(4-fluoro-3-methylphenyl)-5-(2-((3-hydroxy-1-(trifluoromethyl)cyclobutyl)amino)-2-oxoacetyl)-1,2,4-trimethyl-1H-pyrrole-3-carboxamide]",> 30 µM,< 0.05 µM
"Cc1cc(NC(=O)C(=O)c2c(C)c(C(=O)Nc3ccc(F)c(C)c3)c(C)n2C)ccc1F [Example 216, N-(4-fluoro-3-methylphenyl)-5-(2-((4-fluoro-3-methylphenyl)amino)-2-oxoacetyl)-1,2,4-trimethyl-1H-pyrrole-3-carboxamide]",5 to 30 µM,< 0.05 µM
"Cc1cc(NC(=O)c2c(C)c(C(=O)C(=O)NC3CC4(CC(O)C4)C3)n(C)c2C)ccc1F (stereo not drawn) [Example 598, N-(4-fluoro-3-methylphenyl)-5-(2-((6-hydroxyspiro[3.3]heptan-2-yl)amino)-2-oxoacetyl)-1,2,4-trimethyl-1H-pyrrole-3-carboxamide]",> 30 µM,< 0.05 µM
"Cc1cc(NC(=O)c2cc(C(=O)C(=O)N[C@@H](CO)[C@H](C)O)n3c2CCCC3)ccc1F [Example 417, 3-(2-(((2S,3S)-1,3-dihydroxybutan-2-yl)amino)-2-oxoacetyl)-N-(4-fluoro-3-methylphenyl)-5,6,7,8-tetrahydroindolizine-1-carboxamide]",> 30 µM,0.05 to 0.499 µM
"Cc1cc(NC(=O)c2c(C)c(C(=O)C(=O)NC3CCCN(C)CC3)n(C)c2C)ccc1F (stereo not drawn) [Example 353, N-(44-fluoro-3-methylphenyl)-1,2,4-trimethyl-5-(2-((1-methylazepan-4-yl)amino)-2-oxoacetyl)-1H-pyrrole-3-carboxamide]",> 30 µM,0.05 to 0.499 µM
"Cc1c(C(=O)Nc2cccc(C(F)F)c2)c(C)n(C)c1C(=O)C(=O)N[C@]1(C)C[C@H](O)C1 [Example 705, N-(3-(difluoromethyl)phenyl)-5-(2-(((1s,3s)-3-hydroxy-1-methylcyclobutyl)amino)-2-oxoacetyl)-1,2,4-trimethyl-1H-pyrrole-3-carboxamide]",> 30 µM,< 0.05 µM
"Cc1c(C(=O)Nc2ccc(F)c(Cl)c2)c(C)n(C)c1C(=O)C(=O)Nc1ccc(F)nc1 [Example 312, N-(3-chloro-4-fluorophenyl)-5-(2-((6-fluoropyridin-3-yl)amino)-2-oxoacetyl)-1,2,4-trimethyl-1H-pyrrole-3-carboxamide]",5 to 30 µM,< 0.05 µM
Cc1c(C(=O)NC2CCCC2)c2n(c1C(=O)C(=O)NC(C)(C)CO)CCCC2 [Example 754],> 30 µM,0.05 to 0.499 µM
"CC(C)(O)CNC(=O)C(=O)c1c(Cl)c(C(=O)Nc2ccc(F)c(F)c2)c2n1CCCC2 [Example 534, 2-chloro-N-(3,4-difluorophenyl)-3-(2-((2-hydroxy-2-methylpropyl)amino)-2-oxoacetyl)-5,6,7,8-tetrahydroindolizine--1 carboxamide]",5 to 30 µM,0.05 to 0.499 µM
"Cc1cc(NC(=O)c2c(C)c(C(=O)C(=O)NC34CC5CC(CC(C5)C3)C4)n(C)c2C)ccc1F [Example 14, 5-(2-(((3s,5s,7s)-adamantan-1-yl)amino)-2-oxoacetyl)-N-(4-fluoro-3-methylphenyl)-1,2,4-trimethyl-1H-pyrrole-3-carboxamide]",5 to 30 µM,< 0.05 µM
"Cc1c(C(=O)Nc2ccc(F)c(F)c2)c(C)n(C)c1C(=O)C(=O)Nc1ccc(F)cn1 [Example 295, N-(3,4-difluorophenyl)-5-(2-((5-fluoropyridin-2-yl)amino)-2-oxoacetyl)-1,2,4-trimethyl-1H-pyrrole-3-carboxamide]",5 to 30 µM,< 0.05 µM
"Cc1c(C(=O)Nc2ccnc(F)c2)c(C)n(C)c1C(=O)C(=O)NC12CC3CC(CC1C3)C2 [Example 90, N-(2-fluoropyridin-4-yl)-5-(2-(((2R,3as,5S,6as)-hexahydro-2,5-methanopentalen-3a(1H)-yl)amino)-2-oxoacetyl)-1,2,4-trimethyl-1H-pyrrole-3-carboxamide]",5 to 30 µM,< 0.05 µM
"Cc1noc([C@@H](C)NC(=O)C(=O)c2c(Cl)c(C(=O)Nc3ccc(F)c(F)c3)c3n2CCC3)n1 [Example 567, (R)-6-chloro-N-(3,4-difluorophenyl)-5-(2-((1-(3-methyl-1,2,4-oxadiazol-5-yl)ethyl)amino)-2-oxoacetyl)-2,3-dihydro-1H-pyrrolizine-7-carboxamide]",> 30 µM,< 0.05 µM
"Cc1c(C(=O)Nc2ccnc(Cl)c2)c(C)n(C)c1C(=O)C(=O)NC1(C(F)(F)F)CCOCC1 [Example 253, N-(2-chloropyridin-4-yl)-1,2,4-trimethyl-5-(2-oxo-2-((4-(trifluoromethyl)tetrahydro-2H-pyran-4-yl)amino)acetyl)-1H-pyrrole-3-carboxamide]",> 30 µM,< 0.05 µM
"Cc1cc(NC(=O)c2c(C)c(C(=O)C(=O)NCCN3CCSCC3)n(C)c2C)ccc1F [Example 328, N-(4-fluoro-3-methylphenyl)-1,2,4-trimethyl-5-(2-oxo-2-((2-thiomorpholinoethyl)amino)acetyl)-1H-pyrrole-3-carboxamide]",> 30 µM,0.05 to 0.499 µM
"Cc1cc(NC(=O)c2c(C)c(C(=O)C(=O)NCC(C)(C)CO)n3c2CCCC3)ccc1F [Example 443, N-(4-fluoro-3-methylphenyl)-3-(2-((3-hydroxy-2,2-dimethylpropyl)amino)-2-oxoacetyl)-2-methyl-5,6,7,8-tetreahydroindolizine-1-carboxamide]",5 to 30 µM,< 0.05 µM
"Nc1ncc(CNC(=O)C(=O)c2c(Cl)c(C(=O)Nc3ccc(F)c(Cl)c3)c3n2CCC3)s1 [Example 562, 5-(2-(((2-aminothiazol-5-yl)methyl)amino)-2-oxoacetyl)-6-chloro-N-(3-chloro-4-fluorophenyl)-2,3-dihydro-1H-pyrrolizine-7-carboxamide]",5 to 30 µM,< 0.05 µM
"Cc1cc(NC(=O)c2c(C)c(C(=O)C(=O)N[C@@H](C(N)=O)[C@@H](C)O)n(C)c2C)ccc1F [Example 61, 5-(2-(((2R,3R)-1-amino-3-hydroxy-1-oxobutan-2-yl)amino)-2-oxoacetyl)-N-(4-fluoro-3-methylphenyl)-1,2,4-trimethyl-1H-pyrrole-3-carboxamide]",> 30 µM,0.05 to 0.499 µM
"Cc1cc(NC(=O)c2c(C)c(C(=O)C(=O)NC(C)(C)CO)n3c2CCCC3)cnc1F [Example 478, N-(6-fluoro-5-methylpyridin-3-yl)-3-(2-((1-hydroxy-2-methylpropan-2-yl)amino)-2-oxoacetyl)-2-methyl-5,6,7,8-tetrahydroindoliizine-1-carboxamide]",> 30 µM,> 1 µM
"Cc1cc(NC(=O)c2c(C)c(C(=O)C(=O)N[C@@H](C(N)=O)C(C)(C)C)n(C)c2C)ccc1F [Example 40, (R)-5-(2-((1-amino-3,3-dimethyl-1-oxobutan-2-yl)amino)-2-oxoacetyl)-N-(4-fluoro-3-methylphenyl)-1,2,4-trimethyl-1H-pyrrole-3-carboxamide]",0.5 to 4.99 µM,0.5 to 1 µM
"Cc1cc(NC(=O)c2c(C)c(C(=O)C(=O)NC3(C)CCN(C(=O)c4cnn5cccnc45)CC3)n(C)c2C)ccc1F [Example 719, N-(4-fluoro-3-methylphenyl)-1,2,4-trimethyl-5-(2-((4-methyl-1-(pyrazolo[1,5-a]pyrimidine-3-carbonyl)piperidin-4-yl)amino)-2-oxoacetyl)-1H-pyrrole-3-carboxamide]",> 30 µM,< 0.05 µM
"Cc1cc(NC(=O)c2c(C)c(C(=O)C(=O)NC3(CO)CCCC3)n(C)c2C)ccc1F [Example 359, N-(4-fluoro-3-methylphenyl)-5-(2-((1-(hydroxymethyl)cyclopentyl)amino)-2-oxoacetyl)-1,2,4-trimethyl-1H-pyrrole-3-carboxamide]",> 30 µM,< 0.05 µM
"Cc1cc(NC(=O)c2c(C)c(C(=O)C(=O)NC34CCC(O)(CC3)CC4)n(C)c2C)ccc1F [Example 263, N-(4-fluoro-3-methylphenyl)-5-(2-((4-hydroxybicyclo[2.2.2]octan-1-yl)amino)-2-oxoacetyl)-1,2,4-trimethyl-1H-pyrrole-3-carboxamide]",> 30 µM,< 0.05 µM
"CCNC(=O)N1CCC(C)(NC(=O)C(=O)c2c(C)c(C(=O)Nc3ccc(F)c(C)c3)c(C)n2C)CC1 [Example 614, N-ethyl-4-(2-(4-((4-fluoro-3-methylphenyl)carbamoyl)-1,3,5-trimethyl-1H-pyrrol-2-yl)-2-oxoacetamido)-4-methylpiperidine-1-carboxamide]",> 30 µM,< 0.05 µM
"CO[C@H]1CC[C@H](NC(=O)C(=O)c2c(C)c(C(=O)Nc3ccc(F)c(C)c3)c(C)n2C)CC1 [Example 269, N-(4-fluoro-3-methylphenyl)-5-(2-(((1r,4r)-4-methoxycyclohexyl)amino)-2-oxoacetyl)-1,2,4-trimethyl-1H-pyrrole-3-carboxamide]",5 to 30 µM,< 0.05 µM
"CNC(=O)C1(NC(=O)C(=O)c2c(C)c(C(=O)Nc3ccc(F)c(C)c3)c(C)n2C)CC(F)(F)C1 [Example 104, 5-(2-((3,3-difluoro-1-(methylcarbamoyl)cyclobutyl)amino)-2-oxoacetyl)-N-(4-fluoro-3-methylphenyl)-1,2,4-trimethyl-1H-pyrrole-3-carboxamide]",> 30 µM,< 0.05 µM
"CC(=O)N[C@H]1C[C@@H](NC(=O)C(=O)c2c(C)c(C(=O)Nc3ccc(F)c(C)c3)c(C)n2C)C1 [Example 668, 5-(2-(((1s,3s)-3-acetamidocyclobutyl)amino)-2-oxoacetyl)-N-(4-fluoro-3-methylphenyl)-1,2,4-trimethyl-1H-pyrrole-3-carboxamide]",> 30 µM,< 0.05 µM
